Experimental data taken from patent US9795139B2, “Molecules having pesticidal utility, and intermediates, compositions, and processes, related thereto” (priority 2015, dated 2017).

What was measured:
Assay type in all cases: in vivo
[1] = tested on: Cabbage Looper (Trichoplusia ni, TRIPNI); assay: Bioassay on Cabbage Looper (CL), 128-well diet tray assay; settings: 168 h, 50 μg/cm^2 on artificial diet, second instar larvae, 25° C., five to seven days, average of eight wells, read-out: CL % Control (or Mortality) rating
Method in brief: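 Mortality of second instar larvae exposed to diet coated with 50 μg/cm^2 compound (acetone-water 90:10 vehicle, dried); 25° C., 5–7 days.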

[2] = tested on: Beet Armyworm (Spodoptera exigua, LAPHEG); assay: Bioassay on Beet Armyworm (BAW), 128-well diet tray assay; settings: 168 h, 50 μg/cm^2 on artificial diet, second instar larvae, 25° C., five to seven days, average of eight wells, read-out: BAW % Control (or Mortality) rating
Method in brief: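 Diet tray, 8 wells/compound; 50 μg/cm^2 applied to diet surface (90:10 acetone-water), dried. 1–5 L2 larvae/well; 25° C., 14:10 L:D, 5–7 d. Read-out: % mortality, mean of 8 wells.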

[3] = tested on: Yellow Fever Mosquito (Aedes aegypti, AEDSAE); settings: about 1 day-old larvae, 96-well plate from 4000 ppm DMSO master, 3 days at room temperature
Method in brief: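 Aedes aegypti larvae (about 1 day old) in liver-powder water were added to plates dispensed from DMSO master plates (4000 ppm stock) diluted with 90:10 water/acetone; six replicate plates per master. Lidded plates were held at room temperature for 3 days, then each well was scored for mortality.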

Compound	mortality at 50 µg/cm2 [1]	mortality at 50 µg/cm2 [2]	YFM % Control (or Mortality) rating [3]
N#CC1CCC(NC(=O)c2cc(NC(=O)[C@H]3[C@H](c4cc(Cl)cc(Cl)c4)C3(Cl)Cl)ccc2Cl)C1 (relative stereo) [Molecule F35, trans-2-Chloro-N-(3-cyanocyclopentyl)-5-(2,2-dichloro-3-(3,5-dichlorophenyl)cyclopropanecarboxamido)benzamide]	50 to 100%	50 to 100%	A (80-100)
C=Cc1ccc([C@H]2[C@H](C(=O)Nc3ccc(Cl)c(C(=O)NC4(C#N)CC4)c3)C2(Cl)Cl)cc1Cl (relative stereo) [Molecule F67, trans-2-chloro-N-(1-cyanocyclopropyl)-5-(2,2-dichloro-3-(3-chloro-4-vinylphenyl)cyclopropane-1-carboxamido)benzamide]	50 to 100%	50 to 100%	A (80-100)
O=C(NC1(C(=O)NCC(F)(F)F)CC1)c1cc(NC(=O)C2C(c3cc(Cl)cc(Cl)c3)C2(Cl)Cl)ccc1Cl (stereo not drawn) [PF42, trans-2-Chloro-5-(2,2-dichloro-3-(3,5-dichlorophenyl)cyclopropane-1-carbox-amido)-N-(1-((2,2,2-trifluoroethyl)carbamoyl)cyclopropyl)benzamide]	50 to 100%	50 to 100%	A (80-100)
N#Cc1cc(Cl)cc(C2C(C(=O)Nc3ccc(Cl)c(C(=O)NC4CC(F)(F)C4)c3)C2(Cl)Cl)c1 (stereo not drawn) [Molecule F77, trans-2-Chloro-5-(2,2-dichloro-3-(3-chloro-5-cyanophenyl)cyclopropane-1-carboxamidocarboxamido)-N-(3,3-difluorocyclobutyl)benzamide]	50 to 100%	50 to 100%	A (80-100)
N#CC1(NC(=O)c2cc(NC(=O)[C@H]3[C@H](c4cc(Cl)c(Cl)c(Cl)c4)C3(Cl)Cl)ccc2Cl)CC1 [Molecule F63, 2-Chloro-N-(1-cyanocyclopropyl)-5-((1R,3R)-2,2-dichloro-3-(3,4,5-trichloro-phenyl)cyclopropane-1-carboxamido)benzamide]	50 to 100%	50 to 100%	A (80-100)
O=C(NN1CC(CN2CCOCC2)OC1=O)c1cc(NC(=O)C2C(c3cc(Cl)cc(Cl)c3)C2(Cl)Cl)ccc1Cl (stereo not drawn) [PF41, trans-2-Chloro-5-(2,2-dichloro-3-(3,5-dichlorophenyl)cyclopropane-1-carbox-amido)-N-(5-(morpholinomethyl)-2-oxooxazolidin-3-yl)benzamide]	50 to 100%	0 to 50%	A (80-100)
O=C1CCC(NC(=O)c2cc(NC(=O)[C@H]3[C@H](c4cc(Cl)cc(Cl)c4)C3(Cl)Cl)ccc2Cl)CC1 (relative stereo) [Molecule F65, trans-2-Chloro-5-(2,2-dichloro-3-(3,5-dichlorophenyl)cyclopropane-1-carboxamido)-N-(4-oxocyclohexyl)benzamide]	50 to 100%	0 to 50%	A (80-100)
O=C(NC1CCC1)c1cc(NC(=O)[C@H]2[C@H](c3cc(Cl)cc(Cl)c3)C2(Cl)Cl)ccc1Cl (relative stereo) [Molecule F40, trans-2-Chloro-N-cyclobutyl-5-(2,2-dichloro-3-(3,5-dichlorophenyl)cyclopropanecarboxamido)benzamide]	50 to 100%	50 to 100%	A (80-100)
CN(C(=O)c1cc(NC(=O)[C@H]2[C@H](c3ccc(Cl)c(Cl)c3)C2(Cl)Cl)ccc1Cl)C1CC(F)(F)C1 (relative stereo) [Molecule F33, trans-2-Chloro-5-(2,2-dichloro-3-(3,4-dichlorophenyl)cyclopropanecarboxamido)-N-(3,3-difluorocyclobutyl)-N-methylbenzamide]	50 to 100%	50 to 100%	A (80-100)
N#CC1CCC(NC(=O)c2cc(NC(=O)[C@H]3[C@H](c4cc(Cl)c(Cl)c(Cl)c4)C3(Cl)Cl)ccc2Cl)C1 (relative stereo) [Molecule F39, trans-2-Chloro-N-(3-cyanocyclopentyl)-5-(2,2-dichloro-3-(3,4,5-trichlorophenyl)cyclopropanecarboxamido)benzamide]	50 to 100%	50 to 100%	A (80-100)
O=C(NC1CC(F)(F)C1)c1cc(NC(=O)[C@H]2[C@H](c3cc(Cl)cc(Cl)c3)C2(Cl)Cl)ccc1Cl [Molecule F73, 2-Chloro-5-((1R,3R)-2,2-dichloro-3-(3,5-dichlorophenyl)cyclopropanecarbox-amido)-N-(3,3-difluorocyclobutyl)benzamide]	50 to 100%	50 to 100%	A (80-100)
COc1cc([C@H]2[C@H](C(=O)Nc3ccc(Cl)c(C(=O)NC4(C#N)CC4)c3)C2(Cl)Cl)cc(F)c1Br (relative stereo) [Molecule F83, trans-5-(3-(4-Bromo-3-fluoro-5-methoxyphenyl)-2,2-dichlorocyclopropane-1-carboxamido)-2-chloro-N-(1-cyanocyclopropyl)benzamide]	50 to 100%	50 to 100%	A (80-100)
O=C(NN1CCN(CC(F)(F)F)C1=O)c1cc(NC(=O)C2C(c3cc(Cl)cc(Cl)c3)C2(Cl)Cl)ccc1Cl (stereo not drawn) [PF44, trans-2-Chloro-5-(2,2-dichloro-3-(3,5-dichlorophenyl)cyclopropane-1-carbox-amido)-N-(2-oxo-3-(2,2,2-trifluoroethyl)imidazolidin-1-yl)benzamide]	50 to 100%	50 to 100%	A (80-100)
O=C(NN1CCOC1=O)c1cc(NC(=O)C2C(c3cc(Cl)cc(Cl)c3)C2(Cl)Cl)ccc1Cl (stereo not drawn) [PF34, trans-2-Chloro-5-(2,2-dichloro-3-(3,5-dichlorophenyl)cyclopropanecarbox-amido)-N-(2-oxooxazolidin-3-yl)benzamide]	50 to 100%	50 to 100%	A (80-100)
O=C(NC1CC(F)(F)C1)c1cc(NC(=O)[C@H]2[C@H](c3cc(F)cc(Cl)c3)C2(Cl)Cl)ccc1Cl (relative stereo) [PF5, trans-2-Chloro-5-(2,2-dichloro-3-(3-chloro-5-fluorophenyl)cyclopropane-1-carboxamido)-N-(3,3-difluorocyclobutyl)benzamide]	50 to 100%	50 to 100%	B (More than 0-Less than 80)
CC(C)(C)OC(=O)N1CC(NC(=O)c2cc(NC(=O)[C@H]3[C@H](c4cc(Cl)cc(Cl)c4)C3(Cl)Cl)ccc2Cl)C1 (relative stereo) [Molecule F54, trans-tert-butyl 3-(2-chloro-5-(2,2-dichloro-3-(3,5-dichlorophenyl)cyclopropanecarboxamido)-benzamido)azetidine-1-carboxylate]	50 to 100%	50 to 100%	D (No activity noticed in this bioassay)
O=C(NC1CCNC1=O)c1cc(NC(=O)C2C(c3cc(Cl)cc(Cl)c3)C2(Cl)Cl)ccc1Cl (stereo not drawn) [PF29, trans-2-Chloro-5-(2,2-dichloro-3-(3,5-dichlorophenyl)cyclopropane-1-carbox-amido)-N-(2-oxopyrrolidin-3-yl)benzamide]	50 to 100%	50 to 100%	B (More than 0-Less than 80)
N#CC1(NC(=O)c2cc(NC(=O)[C@H]3[C@H](c4cc(Cl)cc(Br)c4)C3(Cl)Cl)ccc2Cl)CC1 (relative stereo) [PF4, trans-5-(3-(3-Bromo-5-chlorophenyl)-2,2-dichlorocyclopropane-1-carboxamido)-2-chloro-N-(1-cyanocyclopropyl)benzamide]	50 to 100%	50 to 100%	A (80-100)
COC(=O)C1(NC(=O)c2cc(NC(=O)[C@H]3[C@H](c4cc(Cl)cc(Cl)c4)C3(Cl)Cl)ccc2Cl)CCCC1 (relative stereo) [PF33, trans-Methyl 1-(2-chloro-5-(2,2-dichloro-3-(3,5-dichlorophenyl)cyclopropane-carboxamido)benzamido)cyclopentanecarboxylate]	50 to 100%	0 to 50%	D (No activity noticed in this bioassay)
O=C(NC1CC(F)(F)C1)c1cc(NC(=O)[C@H]2[C@H](c3ccc(Cl)c(F)c3)C2(Cl)Cl)ccc1Cl (relative stereo) [PF6, trans-2-Chloro-5-(2,2-dichloro-3-(4-chloro-3-fluorophenyl)cyclopropane-1-carboxamido)-N-(3,3-difluorocyclobutyl)benzamide]	50 to 100%	50 to 100%	D (No activity noticed in this bioassay)
O=C(NC1CCC1)c1cc(NC(=O)C2C(c3cc(Cl)c(Cl)c(Cl)c3)C2(Cl)Cl)ccc1Cl (stereo not drawn) [Molecule F42, trans-2-Chloro-N-cyclobutyl-5-(2,2-dichloro-3-(3,4-trichlorophenyl)cyclopropanecarboxamido)benzamide]	50 to 100%	50 to 100%	D (No activity noticed in this bioassay)
